Here are results for four compounds from patent US20240084002A1, “METHODS AND COMPOSITIONS UTILIZING IDO1-DEPENDENT VASCULARIZING CELLS FOR THE TREATMENT OF PATHOLOGICAL CONDITIONS INVOLVING NEOVASCULARIZATION” (LANKENAU INSTITUTE FOR MEDICAL RESEARCH, priority 2020, published 2024).

Read-outs that look alike come from different tables or passages of the source.

The test system of data set [1] is IL6 gene expression. Kind of data set: qPCR of IFNγ+LPS mediated induction of IL6 gene expression in U937 and HL60 cells. In kind it is cell-based, human. The settings on record: inhibitor 1 μM, 24 hr. The source says:
(§1) Quantitative real time PCR analysis.

In data set [2] the test system is U937 and HL60 cells. In words: Viability assay (LDI Cell CountEZ TPS assay kit). The settings on record: IFNγ+LPS, at the concentrations used (1 μM), 24 hrs.
Experimental: (§2) Viability assay. Cell viability in U937 and HL60 cells was measured by LDI Cell CountEZ™ toxicity, proliferation and survival (TPS) assay kit (LDI1201™) as per the manufacturer's protocol. Both cell lines were plated at a density of 10,000 cells/ well of a 96 well plate in 100 μl DMEM medium with 10% FBS. […] Bortezomib (20 nM; LC Laboratories, Cat# B-1408) was used as positive control for inducing cellular apoptosis. Treated cells were incubated at 37° C. in a humidified CO2 incubator for 24 hrs. The TPS assay was then performed with cell viability assessed by reading absorbance at 412 nm in a microtiter plate reader.
Data set [3] concerns the target T1, IDO1 (Homo sapiens, UniProt P14902).
T1 construct: endogenous in cells; host or cells: U937 (ATCC CRL-1593.2) and HL60 (ATCC CCL-240), stimulated with IFNγ + LPS
Kind of data set: Kynurenine levels in supernatants of IFNγ+LPS treated U937 and HL60 cells (IDO1 activity). The settings on record: inhibitor 1 μM, 24 hr. In kind it is cell-based. As to the method:
Kynurenine assay. Levels of kynurenine in U937 and HL60 cell supernatants were measured using Ehrlich's reagent (p-dimethylamino-benzaldehyde). Following treatments, supernatants were collected and transferred to a V-bottom 96-well plate and mixed with 40 μL 50% (w/v) trichloroacetic acid (TCA; LabChem) to precipitate any protein. The plate was then incubated at 65° C. for 30 minutes followed by centrifugation at 1250×g for 10 minutes. Following centrifugation, 100 μL of clarified supernatant was transferred to a new flat-bottomed 96-well plate and mixed at equal volumes with 2% (w/v) Ehrlich's reagent in acetic acid. The resulting reaction was measured at 490 nm using a Synergy HT microtiter plate reader (Bio-Tek). Vitreous humor was collected from eyes of mice that underwent the OIR process. Levels of kynurenine were measured using the IDK® Kynurenin ELISA kit (Immundiagnostik AG, Bensheim, Germany) according to manufacturer's protocol. Additionally, levels of kynurenine were confirmed by high-performance liquid chromatography (HPLC) coupled to electrospray ionization liquid chromatography/ tandem mass spectroscopy (LC/MS-MS) as described (18).

For another data set, the system named is CYP1A1. Kind of data set: qPCR of IFNγ+LPS mediated induction of CYP1A1 in U937 and HL60 cells (AHR activation). Conditions: inhibitor 1 μM, 24 hr.
The next data set deals with 4T1 metastases. The settings on record: prior finding, reference (7); cited from earlier work.
The subject of data set [4] is U937 and HL60 cells. Conditions: human, 24 h, 1 μM.
Experimental: as §2
In the next data set the test system is NOS2. Kind of data set: NOS2 staining of 4T1 lung metastases. It is filed as in vivo, mouse. Conditions: WT mice with 4T1 lung metastases, 50 mg/kg p.o. b.i.d. over 3 days.
In the next data set the test system is CHOP. Kind of data set: qPCR of IFNγ+LPS mediated induction of CHOP in U937 and HL60 cells (ISR activation). It is filed as cell-based, human. The settings on record: inhibitor 1 μM, 24 hr.
Text: as §1

The subject of the next data set is ATF4. In words: qPCR of IFNγ+LPS mediated induction of ATF4 in U937 and HL60 cells (ISR activation). In kind it is cell-based, human. Conditions: inhibitor 1 μM, 24 hr.
Text: as §1
In general terms: Quantitative PCR measures a nucleic acid by following its amplification.

Another data set has as its system Gr-1+ CD11b^lo cells. Kind of data set: Matrigel plug assay, neovascular density. It is filed as in vivo, mouse. Conditions: plugs with WT Gr-1+ CD11b^lo cells in WT mice, 50 mg/kg oral gavage b.i.d. for the final 3 days, plugs resected at day 9. As to the method: Matrigel Plug Assay. To assess the in vivo neovascularizing capability of select immune cell populations isolated from 4T1 pulmonary metastases, 5×10^4-2×10^6 sorted cells were isolated (as indicated in the corresponding figure legends) by fluorescence-activated cell sorting (BD FACSAria III) into RPMI+10% FCS and put on ice. Immediately following sorting, isolated immune cell populations were suspended in 250 μl PBS and combined with 250 μl Matrigel (Corning® Cat# 356237) per plug on ice for in vivo injections. Plugs were established by subcutaneous injection in the dorsal region of recipient mice using an ice-cold syringe with a 21 gauge needle. […] After 9 days post injection, the matrigel plug was harvested and images recorded with either a Samsung Galaxy S6 or an iPhone X using the 2× lens with an additional 10× macro lens attachment (Moment).
For blood vessel quantification, the Matrigel plugs were blocked in OCT and cryosectioned using the tape transfer method ([…] per plug). Following sectioning, neovascularization was visualized under confocal microscope by fluorescence staining with rabbit anti-mouse for caveolin 1 and quantitatively analyzed using Adobe Photoshop as described above. Statistical Analysis. […] Significance for Kaplan-Meier survival curves was determined by 2-group log-rank test. […]

In data set [5] the target is T1, IDO1. Conditions: U937 and HL60 cells, previously shown, reference (9); cited from earlier work.
The subject of data set [6] is IL6 gene expression. The settings on record: U937 and HL60 cells, previously shown, reference (9); cited from earlier work.

T1 sequence (P14902 whole entry): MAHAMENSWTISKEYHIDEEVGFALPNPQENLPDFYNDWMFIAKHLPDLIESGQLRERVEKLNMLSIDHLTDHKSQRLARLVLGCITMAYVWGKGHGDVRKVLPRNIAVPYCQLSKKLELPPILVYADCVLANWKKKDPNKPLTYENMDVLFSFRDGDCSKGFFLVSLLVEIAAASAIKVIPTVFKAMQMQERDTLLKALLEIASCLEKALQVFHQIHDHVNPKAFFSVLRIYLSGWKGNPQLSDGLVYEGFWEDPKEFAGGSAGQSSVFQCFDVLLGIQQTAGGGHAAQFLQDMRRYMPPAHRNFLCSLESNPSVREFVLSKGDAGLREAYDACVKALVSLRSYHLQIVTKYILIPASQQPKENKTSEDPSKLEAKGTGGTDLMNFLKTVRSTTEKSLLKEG
Experimental for CYP1A1: Cell culture. The 4T1 (mouse mammary carcinoma; ATCC Cat# CRL-2539) and U937 (human histiocytic lymphoma; ATCC Cat# CRL-1593.2) cell lines were cultured in DMEM supplemented with penicillin, streptomycin, 10% FBS and 55 μM β-mercaptaethanol. The HL60 (human promyelocytic leukemia; ATCC Cat# CCL-240) cell line was maintained in IMDM media supplemented with 10% FCS plus 55 μM β-mercaptaethanol, 2 mM glutamax (Life Technologies), and 50 μg/ml gentamicin. […] No mycoplasma testing was done on the U937 or HL60 cell lines. […] In vitro experiments were performed with U937 and HL60 cells maintained no longer than passage 6. […] At 24 hr mRNA was prepared from the treated cells for qPCR-based analysis of gene expression and cell culture media was analyzed for levels of kynurenine to assess IDO1 enzymatic activity.
Quantitative real time PCR analysis. […] Quantitative PCR (QPCR) reactions were run using the Fast Start Universal SYBR Green Mix (Roche Applied Science) with an Eppendorf Realplex 4 Mastercycler QPCR machine. Levels of mRNA expression detected with primers specific for Atf4, Chop Il6 and Cyp1a1 (Tables 1-3) were normalized to 18S mRNA levels and differences between treatment groups were analyzed using the δ-δ cycle threshold method.

For the compound `C[C@@H](CO)NC(=O)c1cc(-c2ccc(Cl)cc2)nn(-c2cccc(F)c2)c1=O` [BAY-218], the “effect on IL6 gene expression” value in the data set on IL6 gene expression [1] is reported as “no significant effect”. Also, in the data set with U937 and HL60 cells [2], the “impact on cell viability” value is “Neither ISRIB, Epacadostat nor BAY-218 had a sufficient impact on cell viability”. In addition, the “effect on the level of kynurenine produced” value at IDO1 [3] is “neither had a significant effect”. Besides, in the data set with CYP1A1, the “effect on induction of CYP1A1 message” value is “blocked induction of CYP1A1”.
As to `NS(=O)(=O)NCCNc1nonc1C(=NO)Nc1ccc(F)c(Br)c1` [Epacadostat], the “blood vessel formation within established 4T1 metastases” value in the data set on 4T1 metastases is “reverses blood vessel formation”. Besides, in the data set with U937 and HL60 cells [4], the “impact on cell viability” value is on record as “Neither ISRIB, Epacadostat nor BAY-218 had a sufficient impact on cell viability”. Moreover, the “NOS2 expression within lung metastases” value in the data set on NOS2 is on record as “elicits NOS2 elevation”. In addition, in the data set with IL6 gene expression [1], the “reduction IL6 gene expression” value is reported as not below 99%. Moreover, the “effect on induction of CHOP message” value with CHOP is recorded as “effectively blocked”. In addition, in the data set with ATF4, the “effect on induction of ATF4 message” value is reported as “effectively blocked”. In addition, the “degree of neovascularization in Matrigel plugs” value with Gr-1+ CD11b^lo cells is “decreased the degree of neovascularization promoted by CD11b^lo cells to a level quantifiably indistinguishable from CD11b^hi cells”.
As to `O=C(COc1ccc(Cl)cc1)NC1CCC(NC(=O)COc2ccc(Cl)cc2)CC1` (stereo not drawn) [ISRIB], the “effect on IL6 gene expression” value in the data set on IL6 gene expression [1] is “effectively blocked”. In the data set with CHOP, the “effect on induction of CHOP message” value is on record as “blocked induction”. In the data set with ATF4, the “effect on induction of ATF4 message” value is “blocked induction”. The “impact on cell viability” value with U937 and HL60 cells [2] is recorded as “Neither ISRIB, Epacadostat nor BAY-218 had a sufficient impact on cell viability”. In addition, the “effect on the level of kynurenine produced” value on IDO1 [3] is reported as “neither had a significant effect”.
For the compound “methylthiohydantoin-DL-tryptophan [MTH-Trp]”, on IDO1 [5], the “IFNγ+LPS-mediated induction of IDO1 activity” value was “could be blocked”. In addition, the “corresponding increase in IL6” value with IL6 gene expression [6] is “could be blocked”.
